The structures appear in SMILES notation. Some results are limits rather than exact numbers.

One experiment concerns SARS-CoV-2 strain USA-WA1/2020. The experiment is described as follows: microbe, parasite or virus in culture. The class given is cell-based. The conditions noted are these: Severe acute respiratory syndrome coronavirus 2, HeLa-ACE2, 24 h, HeLa-ACE2 cells, SARS-CoV-2 infection, 24 h; given as bound; read-out: EC50, uM (Hela).
Usually EC50 stands for the concentration at which the effect is half-maximal. Take `CC(C)(C)NC(=O)C(=O)N1CC2(COC2)C[C@H]1C(=O)N[C@@H](C[C@@H]1CCNC1=O)C(=O)COC(F)(F)F` [Compound 515, (S)-6-(2-(tert-butylamino)-2-oxoacetyl)-N-((S)-3-oxo-1-((S)-2-oxopyrrolidin-3-yl)-4-(trifluoromethoxy)butan-2-yl)-2-oxa-6-azaspiro[3.4]octane-7-carboxamide]: the EC50 is above 1 µM.

The same experiment, now with this note: Severe acute respiratory syndrome coronavirus 2, HeLa-ACE2, 24 h, HeLa-ACE2 cells, SARS-CoV-2 infection, 24 h; read-out: EC50, uM (Hela).
As to `CC(C)(C)NC(=O)C(=O)N[C@@H](CC1CC1)C(=O)N[C@@H](C[C@@H]1CCNC1=O)C(=O)COC(F)(F)F` [Compound 503, N1-(tert-butyl)-N2-((S)-3-cyclopropyl-1-oxo-1-(((S)-3-oxo-1-((S)-2-oxopyrrolidin-3-yl)-4-(trifluoromethoxy)butan-2-yl)amino)propan-2-yl)oxalamide], the EC50 is below 0.05 µM. For the compound `Cc1ccccc1NC(=O)C(=O)N[C@@H](CC(C)(C)C)C(=O)N[C@@H](C[C@@H]1CCNC1=O)C(=O)COC(F)(F)F` [Compound 504, N1-((S)-4,4-dimethyl-1-oxo-1-(((S)-3-oxo-1-((S)-2-oxopyrrolidin-3-yl)-4-(trifluoromethoxy)butan-2-yl)amino)pentan-2-yl)-N2-(o-tolyl)oxalamide], the EC50 is below 0.05 µM.

In the case of `CC(C)(C)C[C@H](NC(=O)C(=O)NCC(F)(F)F)C(=O)N[C@@H](C[C@@H]1CCNC1=O)C(=O)COC(F)(F)F` [Compound 505, N1-((S)-4,4-dimethyl-1-oxo-1-(((S)-3-oxo-1-((S)-2-oxopyrrolidin-3-yl)-4-(trifluoromethoxy)butan-2-yl)amino)pentan-2-yl)-N2-(2,2,2-trifluoroethyl)-oxalamide], the EC50 is below 0.05 µM. As for `Cc1ccccc1NC(=O)C(=O)N[C@@H](CC1CC1)C(=O)N[C@@H](C[C@@H]1CCNC1=O)C(=O)COC(F)(F)F` [Compound 507, N1-((S)-3-cyclopropyl-1-oxo-1-(((S)-3-oxo-1-((S)-2-oxopyrrolidin-3-yl)-4-(trifluoromethoxy)butan-2-yl)amino)propan-2-yl)-N2-(o-tolyl)oxalamide], the EC50 is below 0.05 µM. Take `CC(C)(C)NC(=O)C(=O)N1CC2(CC1C(=O)N[C@@H](C[C@@H]1CCNC1=O)C(=O)COC(F)(F)F)CC(F)(F)C2` (stereo partly drawn) [Compound 508, 6-(2-(tert-butylamino)-2-oxoacetyl)-2,2-difluoro-N-((S)-3-oxo-1-((S)-2-oxopyrrolidin-3-yl)-4-(trifluoromethoxy)butan-2-yl)-6-azaspiro[3.4]octane-7-carboxamide]: the half-maximal effective concentration (EC50) lay within 0.05 to 0.2 µM. In the case of `O=C(N[C@@H](CC1CC1)C(=O)N[C@@H](C[C@@H]1CCNC1=O)C(=O)COC(F)(F)F)C(=O)NC12CC(F)(C1)C2` [Compound 509, N1-((S)-3-cyclopropyl-1-oxo-1-(((S)-3-oxo-1-((S)-2-oxopyrrolidin-3-yl)-4-(trifluoromethoxy)butan-2-yl)amino)propan-2-yl)-N2-(3-fluorobicyclo[1.1.1]-pentan-1-yl)oxalamide], the EC50 is below 0.05 µM. Still for that read-out and setting: in the case of `O=C(NC(CC1CCOCC1)C(=O)N[C@@H](C[C@@H]1CCNC1=O)C(=O)COC(F)(F)F)C(=O)NC12CC(F)(C1)C2` (stereo partly drawn) [Compound 510, N1-(3-fluorobicyclo-[1.1.1]pentan-1-yl)-N2-(1-oxo-1-(((S)-3-oxo-1-((S)-2-oxopyrrolidin-3-yl)-4-(trifluoromethoxy)butan-2-yl)amino)-3-(tetrahydro-2H-pyran-4-yl)propan-2-yl)oxalamide] it was 0.2 to 0.5 µM; in that of `CC(C)(C)NC(=O)C(=O)N1CC2(CCC2)CC1C(=O)N[C@@H](C[C@@H]1CCNC1=O)C(=O)COC(F)(F)F` (stereo partly drawn) [Compound 511, 6-(2-(tert-butylamino)-2-oxoacetyl)-N-((S)-3-oxo-1-((S)-2-oxopyrrolidin-3-yl)-4-(trifluoromethoxy)butan-2-yl)-6-azaspiro[3.4]-octane-7-carboxamide], 0.05 to 0.2 µM.

As to `O=C(N[C@@H](CC1CC1)C(=O)N[C@@H](C[C@@H]1CCNC1=O)C(=O)COC(F)(F)F)C(=O)NC1(C(F)(F)F)CC1` [Compound 512, N1-((S)-3-cyclopropyl-1-oxo-1-(((S)-3-oxo-1-((S)-2-oxopyrrolidin-3-yl)-4-(trifluoromethoxy)butan-2-yl)amino)propan-2-yl)-N2-(1-(trifluoromethyl)-cyclopropyl)-oxalamide], the EC50 lay in the range of 0.05 to 0.2 µM. Turning to `Cc1ccccc1NC(=O)C(=O)N1C[C@@H]2CCC[C@@H]2[C@H]1C(=O)N[C@@H](C[C@@H]1CCNC1=O)C(=O)COC(F)(F)F` [Compound 513, (1S,3aR,6aS)-N-((S)-3-oxo-1-((S)-2-oxopyrrolidin-3-yl)-4-(trifluoromethoxy)butan-2-yl)-2-(2-oxo-2-(o-tolylamino)acetyl)-octahydrocyclo-penta[c]pyrrole-1-carboxamide], the concentration giving a half-maximal response (EC50) was below 0.05 µM. In the case of `CC(C)(C)NC(=O)C(=O)N1CC2(COC2)C[C@@H]1C(=O)N[C@@H](C[C@@H]1CCNC1=O)C(=O)COC(F)(F)F` [Compound 514, (R)-6-(2-(tert-butylamino)-2-oxoacetyl)-N-((S)-3-oxo-1-((S)-2-oxopyrrolidin-3-yl)-4-(trifluoromethoxy)butan-2-yl)-2-oxa-6-azaspiro[3.4]octane-7-carboxamide], the EC50 lay within 0.5 to 1 µM. As to `CC1(C)[C@@H]2[C@@H](C(=O)N[C@@H](C[C@@H]3CCNC3=O)C(=O)COC(F)(F)F)N(C(=O)C(=O)NCC(F)F)C[C@@H]21` [Compound 516, (1R,2S,5S)-3-(2-((2,2-difluoroethyl)amino)-2-oxoacetyl)-6,6-dimethyl-N-((S)-3-oxo-1-((S)-2-oxopyrrolidin-3-yl)-4-(trifluoromethoxy)butan-2-yl)-3-azabicyclo-[3.1.0]hexane-2-carboxamide], the EC50 was 0.05 to 0.2 µM. For `O=C(NCC(F)(F)F)C(=O)N[C@@H](CC1CC1)C(=O)N[C@@H](C[C@@H]1CCNC1=O)C(=O)COC(F)(F)F` [Compound 517, N1-((S)-3-cyclopropyl-1-oxo-1-(((S)-3-oxo-1-((S)-2-oxopyrrolidin-3-yl)-4-(trifluoromethoxy)butan-2-yl)amino)propan-2-yl)-N2-(2,2,2-trifluoroethyl)oxalamide], the concentration giving a half-maximal response (EC50) is below 0.05 µM. With `CC(C)(C)NC(=O)C(=O)N1C[C@@]2(C[C@H]1C(=O)N[C@@H](C[C@@H]1CCNC1=O)C(=O)COC(F)(F)F)CC2(F)F` [Compound 518, (3R,6S)-5-(2-(tert-butylamino)-2-oxoacetyl)-1,1-difluoro-N-((S)-3-oxo-1-((S)-2-oxopyrrolidin-3-yl)-4-(trifluoromethoxy)butan-2-yl)-5-azaspiro[2.4]-heptane-6-carboxamide], the EC50 was in the range of 0.05 to 0.2 µM. With `O=C(NCC(F)F)C(=O)N1C[C@@H]2CCC[C@@H]2[C@H]1C(=O)N[C@@H](C[C@@H]1CCNC1=O)C(=O)COC(F)(F)F` [Compound 519, (1S,3aR,6aS)-2-(2-((2,2-difluoroethyl)amino)-2-oxoacetyl)-N-((S)-3-oxo-1-((S)-2-oxopyrrolidin-3-yl)-4-(trifluoromethoxy)butan-2-yl)octahydrocyclo-penta[c]pyrrole-1-carboxamide], the concentration for a half-maximal effect (EC50) lay within 0.2 to 0.5 µM. For `CC(C)(C)NC(=O)C(=O)N1C[C@@H]2CC(F)(F)C[C@@H]2[C@H]1C(=O)N[C@@H](C[C@@H]1CCNC1=O)C(=O)COC(F)(F)F` [Compound 520, (1S,3aR,6aS)-2-(2-(tert-butylamino)-2-oxoacetyl)-5,5-difluoro-N-((S)-3-oxo-1-((S)-2-oxopyrrolidin-3-yl)-4-(trifluoromethoxy)butan-2-yl)octahydrocyclo-penta[c]pyrrole-1-carboxamide], the half-maximal effective concentration (EC50) was in the range of 0.05 to 0.2 µM.

In the case of `CC(C)(C)NC(=O)C(=O)N1[C@@H]2C[C@@H]2C[C@H]1C(=O)N[C@@H](C[C@@H]1CCNC1=O)C(=O)COC(F)(F)F` [Compound 521], the EC50 lay in the range of 0.2 to 0.5 µM. Same read-out and setting: to `CC(C)(C)NC(=O)C(=O)N1CC2(CCOCC2)CC1C(=O)N[C@@H](C[C@@H]1CCNC1=O)C(=O)COC(F)(F)F` (stereo partly drawn) [Compound 522, 2-(2-(tert-butylamino) -2-oxoacetyl)-N-((S)-3-oxo-1-((S)-2-oxopyrrolidin-3-yl)-4-(trifluoromethoxy)butan-2-yl)-8-oxa-2-azaspiro[4.5]decane-3-carboxamide] belongs 0.5 to 1 µM; to `O=C(NC1CC(F)(F)C1)C(=O)N1C[C@@H]2CCC[C@@H]2[C@H]1C(=O)N[C@@H](C[C@@H]1CCNC1=O)C(=O)COC(F)(F)F` [Compound 523, (1S,3aR,6aS)-2-(2-((3,3-difluorocyclobutyl)-amino)-2-oxoacetyl)-N-((S)-3-oxo-1-((S)-2-oxopyrrolidin-3-yl)-4-(trifluoromethoxy)butan-2-yl)octahydrocyclo-penta[c]pyrrole-1-carboxamide], below 0.05 µM; to `Cc1ccccc1NC(=O)C(=O)NC(CC1CCOCC1)C(=O)N[C@@H](C[C@@H]1CCNC1=O)C(=O)COC(F)(F)F` (stereo partly drawn) [Compound 524, N1-(1-oxo-1-(((S)-3-oxo-1-((S)-2-oxopyrrolidin-3-yl)-4-(trifluoromethoxy)butan-2-yl)amino)-3-(tetrahydro-2H-pyran-4-yl)propan-2-yl)-N2-(o-tolyl)oxalamide], below 0.05 µM.

As for `O=C(NC12CC(F)(C1)C2)C(=O)N1C[C@@H]2CCC[C@@H]2[C@H]1C(=O)N[C@@H](C[C@@H]1CCNC1=O)C(=O)COC(F)(F)F` [Compound 525, (1S,3aR,6aS)-2-(2-((3-fluorobicyclo[1.1.1]-pentan-1-yl)amino)-2-oxoacetyl)-N-((S)-3-oxo-1-((S)-2-oxopyrrolidin-3-yl)-4-(trifluoromethoxy)butan-2-yl)octahydrocyclo-penta[c]pyrrole-1-carboxamide], the EC50 is below 0.05 µM. With `CC(C)(NC(=O)C(=O)N1C[C@@H]2CCC[C@@H]2[C@H]1C(=O)N[C@@H](C[C@@H]1CCNC1=O)C(=O)COC(F)(F)F)C(F)(F)F` [Compound 526, (1S,3aR,6aS)-N-((S)-3-oxo-1-((S)-2-oxopyrrolidin-3-yl)-4-(trifluoromethoxy)butan-2-yl)-2-(2-oxo-2-((1,1,1-trifluoro-2-methylpropan-2-yl)amino)acetyl)-octahydrocyclopenta[c]-pyrrole-1-carboxamide], the EC50 was below 0.05 µM.

For the origin of these results see US11708348B2, “Protease inhibitors for treatment of coronavirus infections” (The Scripps Research Institute, priority 2021, dated 2023).
